# Data taken from US4496591A, “Insecticidal bis-carbamate sulfides” (priority 1981, dated 1985).
# What was measured:
# Type in all cases: in vivo
# [1] = tested on: root-knot nematode, Meloidogyne incognita var. acrita; assay: Nematocide test; parameters: key: 1: severe galling, equal to untreated plants; 2: moderate galling; 3: light galling; 4: very light galling; 5: no galling, perfect control; conditions: 3.33 m.g. per jar, cucumber, approximately 3 weeks
# Method: The test organism used was the infective migratory larvae of the root-knot nematode, Meloidogyne incognita var. acrita, reared in the greenhouse on roots of cucumber plants. Infected plants were removed from the culture, and the roots were chopped very finely. A small amount of this inoculum was added to a pint jar containing approximately 180 cc. of soil. The jars were capped and incubated for one week at room temperature. During this period eggs of the nematode were hatched, and the larval forms migrated into the soil.
# Ten ml. of the test formulation were added to each of the two jars for each dosage tested. Following the addition of chemical, the jars were capped, and the contents thoroughly mixed on a ball mill for […].
# The test compounds were formulated by a standard procedure of solution in acetone addition of an emulsifier, and dilution with water. Primary screening tests were conducted at 3.33 m.g. of the test compound per jar.
# The jars were left capped at room temperature for a period of 48 hours, and the contents then transferred to 3 inch pots. Subsequently, the pots were seeded to cucumber as an indicator crop and placed in the greenhouse where they were cared for in the normal fashion for approximately 3 weeks.
# The cucumber plants were then taken from the pots, the soil removed from the roots, and the amount of galling visually rated.
# In the test for activity against nematodes activity was rated as follows: […]
# [2] = tested on: housefly adults (Musca domestica); assay: Comparative residual effect in soil
# Method: Selected species of the new compounds were evaluated for their residual pesticidal activity in soil. […] The residual activity test were conducted using five to seven-day old housefly adults (Musca domestica).
# The soil mixture used was one part agricultural soil and three parts sand. The agricultural soil was stored in plastic bags in a freezer, immediately after removal from the field. This was done to reduce microbial multiplication. Two weeks prior to use, the soil was thawed and held at room temperature to allow microbial population to equilibrate. The sand and soil were sifted to remove clumps and debris and were then blended by rolling on a roller mill in a closed metal container. The moisture level was adjusted to 15% by weight.
# The concentration in the soil of the compound to be tested was four times the amount (in parts per million) necessary to achieve a mortality rate of 50% on contact with the soil (LD50). This is in accordance with the procedure developed by C. R. Harris of the Research Institute, Canadian Department of Agriculture, London, Ontario. Such procedure is disclosed in "Biological Activity of Chloropyrifos, Chlorpyrifor-Methyl, Phorate, and Counter® in Soil", The Canadian Entomologist, Vol. 109, pp. 1115-1120 (August 1977); and in "Laboratory Studies on the Persistance of Biological Activity of Some Insecticides in Soils", Journal of Economic Entomology, Vol. 62, No. 6, pp. 1437-1441 (December 1969).
# An appropriate amount of compound was dissolved in an acetone--Triton solution and was diluted with water. Five mililiters of the formulated chemical was applied to four ounces of soil mixture and rolled in a 16-ounce glass jar to blend the compound evenly with the soil. Ten mililiters of granular cane sugar was then mixed thoroughly with the treated soil in an eight-ounce plastic container.
# Twenty-five housefly adults, anesthetized with CO2, were then transferred to the soil and were covered with a perforated plastic lid. The test containers were held for 24 hours in a constant environment at a temperature of 80±5° F. and a relative humidity of […]. Mortality was based on the ability of the fly to move in a normal manner without spinning.
# The above process was repeated on treated soil which had been incubated at 25° C. and 90% relative humidity for 1, 4, 6 and 8 weeks after initial exposure. This was necessary because the soil is incubated without sugar, sugar being added at the time of reinfestation. For this reason, appropriate volumes of soil had to be treated at the start of the soil test to last for the expected residual period.
# [3] = tested on: Mexican bean beetle (Epilachna varivestis, Muls.) larvae; assay: Mexican bean beetle leaf spray test; parameters: key: A: excellent control; B: partial control; C: no control at 500 ppm; conditions: 500 parts per million, fourth instar larvae, three days
# Method: Suspensions of the test compounds were prepared by dissolving one gram of compound in 50 milliliters of acetone in which had been dissolved 0.1 gram (10 percent of the weight of compound) of an alkylphenoxy polyethoxyethanol surfactant, as an emulsifying or dispersing agent. The resulting solution was mixed into 150 milliliters of water to give roughly 200 milliliters of a suspension containing the compound in finely divided form. The thus-prepared stock suspension contained 0.5 percent by weight of compound. The concentrations in parts per million by weight employed in the tests described hereinbelow were obtained by appropriate dilutions of the stock suspension with water. The test procedures were as follows:
# Fourth instar larvae of the Mexican bean beetle (Epilachna varivestis, Muls.), reared on Tendergreen bean plants at a temperature of 80±5° F. and 50±5° F. percent relative humdity, were the test insects.
# The test compounds were formulated by diluting the stock suspension with water to give a suspension containing 500 parts of test compound per million parts of final formulation. Tendergreen bean plants of standard height and age were placed on a revolving turntable and sprayed with 100-110 milliliters of test compound formulation by use of a DeVilbiss spray gun set at 40 psig air pressure. This application, which lasted 25 seconds, was sufficient to wet the plants to run-off. As a control, 100-110 milliliters of a water-acetone-emulsifier solution containing no test compound was also sprayed on infested plants. When dry, the paired leaves were separated and each was placed in a 9 centimeter Petri dish lined with moistened filter paper. Five randomly selected larvae were introduced into each dish, and the dishes were closed. The closed dishes were labeled and held at a temperature of 80±5° F., for three days. Although the larvae could easily consume the leaf within 24 to 48 hours, no more food was added. Larvae which were unable to move the length of the body, even upon stimulation, were considered dead.
# In these tests the pesticidal activity of the compounds at the indicated dosage rate against aphid, Southern Armyworm, Bean Beetle and housefly was rated as follows: […]
structure (smiles),measurement,setting,value
CSC(C)=NOC(=O)N(C)SN(C)C(=O)Oc1cccc(C=O)c1 [Compound 3],"Root-Knot Nematode, galling rating",[1],1
same,"Residual effect in soil (mortality), 0 weeks","[2]; 0 weeks, soil concentration four times LD50, housefly, 24 hours",100
same,"Residual effect in soil (mortality), 1 week","[2]; 1 week, soil concentration four times LD50, 25° C., 90% relative humidity, 10080 min",100
same,"Residual effect in soil (mortality), 4 weeks","[2]; 4 weeks, soil concentration four times LD50, 25° C., 90% relative humidity, 40320 min",73
same,"Residual effect in soil (mortality), 8 weeks","[2]; 8 weeks, soil concentration four times LD50, 25° C., 90% relative humidity, 80640 min",40
same,Residual Activity (weeks),"[2]; soil concentration four times LD50, housefly",4-8 weeks
same,"Mexican Bean Beetle, pesticidal activity rating",[3],A
